Source: ChEMBL document CHEMBL1629646, “Continuous cefazolin infusion to treat bone and joint infections: clinical efficacy, feasibility, safety, and serum and bone concentrations” (Antimicrob Agents Chemother, 2009)
Values after ≈ are worked out from the molar mass of the structure shown.

Columns and labels:
[1] = Drug level in patient serum with bone and joint infection at 60 to 80 mg/kg/day, iv administered as continuous infusion for 42 days measured from day 2 to 10 by agar disk diffusion assay; type: ADME, organism-based; set-up: route intravenous; details: human, read-out: Drug uptake
[2] = Drug level in patient serum with bone and joint infection at 60 to 80 mg/kg/day, iv administered as continuous infusion for 42 days measured from day 11 to 21 by agar disk diffusion assay; type: ADME, organism-based; set-up: route intravenous; details: human, read-out: Drug uptake
Staphylococcus [3] = assay: Ratio of drug level in patient serum with bone and joint infection to MIC90 for drug-susceptible Staphylococci
Streptococcus = assay: Antimicrobial activity against Streptococcus; type: functional
Staphylococcus [4] = assay: Antimicrobial activity against methicillin-susceptible Staphylococcus; type: functional
[5] = Ratio of drug level in bone to serum in patient with bone and joint infection at 60 to 80 mg/kg/day, iv administered as continuous infusion for 42 days; type: ADME, organism-based; set-up: route intravenous; details: human
Nucleic Acid = assay: Ratio of drug level in patient bone with bone and joint infection to MIC90 for drug-susceptible Staphylococci; type: functional
[6] = Drug level in patient bone with bone and joint infection measured per gram of tissue at 60 to 80 mg/kg/day, iv administered as continuous infusion for 42 days measured on day 7 by agar disk diffusion assay; type: ADME, organism-based, Bone element; set-up: route intravenous; details: human, in vivo, 1008 h
Bacillus pumilus = assay: Antimicrobial activity against Bacillus pumilus SJ1554; type: functional

concentration at 1008 h [1] [µg/mL] | concentration at 1008 h [2] [µg/mL] | MIC90 (Streptococcus) [µg/mL] | MIC90 (Staphylococcus [4]) [µg/mL] | Kp at 1008 h [5] | bone concentration [6] [µg/g] | MIC (Bacillus pumilus) [µg/mL] | Structure (SMILES) | Ratio (Staphylococcus [3]) | Ratio (Nucleic Acid)
63 | 57 | 0.1 (≈ 0.22 µM) | 1 (≈ 2.2 µM) | 0.25 | 13.5 |  | Cc1nnc(SCC2=C(C(=O)O)N3C(=O)[C@@H](NC(=O)Cn4cnnn4)[C@H]3SC2)s1 [CEFAZOLIN] | 60.8 | 5
 |  |  |  |  |  | > 512 | C[C@@H]1O[C@@H]1P(=O)(O)O [FOSFOMYCIN] |  | 
 |  |  |  |  |  | > 128 | CO[C@H]1/C=C/O[C@@]2(C)Oc3c(C)c(O)c4c(O)c(c(/C=N/N5CCN(C)CC5)c(O)c4c3C2=O)NC(=O)/C(C)=C\C=C\[C@H](C)[C@H](O)[C@@H](C)[C@@H](O)[C@@H](C)[C@H](OC(C)=O)[C@@H]1C [RIFAMPIN] |  | 
